Assay type in all cases: functional, organism-based
For assay [1], the system named is Rattus norvegicus. Nature of the assay: Hypotensive activity in po dosed anaesthetized normotensive Wistar rat assessed as decrease in diastolic pressure administered as single dose after 5 mins.
Assay [2] deals with Rattus norvegicus. Description: Hypotensive activity in anaesthetized normotensive Wistar rat assessed as decrease in systolic pressure at 0.625 mg/kg, po administered as single dose after 5 mins. More on the design: dose 0.625 mg/kg.
Assay [3] relates to Rattus norvegicus. Description: Hypotensive activity in anaesthetized normotensive Wistar rat assessed as decrease in systolic pressure at 0.125 to 1 mg/kg, po administered as single dose after 5 mins.

The source made the active and inactive calls. The calls are words filed in the database; no cut-off is given here.

Take `COc1ccccc1OCCNC[C@@H](O)COc1cccc2[nH]ccc12`: the outcome in assay [1] was inactive.
In the case of `COc1ccccc1OCCNC[C@H](O)COc1cccc2[nH]ccc12`, the outcome in assay [2] was Active.
Turning to `COc1ccccc1OCCNCC(O)COc1cccc2[nH]ccc12` (racemic), the outcome in assay [3] was Active.

For the origin of these results see ChEMBL document CHEMBL1153880, “Synthesis and adrenolytic activity of 1-(1H-indol-4-yloxy)-3-{[2-(2-methoxyphenoxy)ethyl]amino}propan-2-ol and its enantiomers. Part 1” (Eur J Med Chem, 2009).
